Measurements as given in ChEMBL document CHEMBL5046276 (J Med Chem, 2022).
Values belong to the compound of their own block, whether it stands above or below them. Activity calls are given as the source filed them. The calls are words filed in the database; no cut-off is given here.

Tests used:
[1] = Cytotoxicity against HEK293T cells incubated for 72 hrs by CCK-8 assay; settings: human
[2] = Selectivity index, ratio of IC50 for cytotoxicity against HEK293T cells to IC50 for antimalarial activity against asexual blood stage wild-type Plasmodium falciparum 3D7; type: toxicity, cell-based; settings: human, read-out: Ratio IC50
[3] = Cytotoxicity against human HepG2 cells incubated for 72 hrs by CCK-8 assay
[4] = Metabolic stability in mouse liver microsomes assessed as half life at […] incubated for 45 mins in presence of NADPH by LC/MS analysis; type: ADME, Microsome; settings: for t1/2: microsomes, 0.75 h, 10000 µM
Plasmodium yoelii [5] = test: Antimalarial activity against blood stage Plasmodium yoelii infected in BALB/c mouse assessed as parasitemia at 60 mg/kg, ip qd for 5 days and measured after 16 days; type: functional; settings: time 16 day
Plasmodium falciparum [6] = test: Antimalarial activity against asexual blood stage chloroquine-resistant Plasmodium falcipuram GB4 assessed as parasite growth inhibition incubated for 72 hrs by SYBR Green I staining based fluorescence analysis; type: functional, organism-based; settings: GB4, 72 h
Plasmodium falciparum [7] = test: Antimalarial activity against asexual blood stage wild-type Plasmodium falciparum 3D7 assessed as parasite growth inhibition incubated for 72 hrs by SYBR Green I staining based fluorescence analysis; type: functional, organism-based; settings: 3D7, 72 h
Plasmodium falciparum [8] = test: Antimalarial activity against asexual blood stage sulfadoxine-pyrimethamine/mefloquine-resistant Plasmodium falcipuram CP286 assessed as parasite growth inhibition incubated for 72 hrs by SYBR Green I staining based fluorescence analysis; type: functional, organism-based; settings: CP286, 72 h
Plasmodium falciparum [9] = test: Antimalarial activity against asexual blood stage chloroquine-resistant Plasmodium falciparum Dd2 assessed as parasite growth inhibition incubated for 72 hrs by SYBR Green I staining based fluorescence analysis; type: functional, organism-based; settings: Dd2, 72 h
[10] = Metabolic stability in mouse liver microsomes assessed as intrinsic clearance at […] incubated for 45 mins in presence of NADPH by LC/MS analysis; type: ADME, Microsome; settings: read-out: CLH
Plasmodium yoelii [11] = test: Antimalarial activity against blood stage Plasmodium yoelii infected in BALB/c mouse assessed as parasite killing by measuring RBC cells in blood smear at 60 mg/kg, ip qd for 5 days by microscopic analysis; type: functional, organism-based; settings: Erythrocyte, time 5.0 day
[12] = Selectivity index, ratio of IC50 for cytotoxicity against human HepG2 cells to IC50 for antimalarial activity against asexual blood stage wild-type Plasmodium falciparum 3D7; type: toxicity, cell-based; settings: read-out: Ratio IC50
Plasmodium falciparum [13] = test: Antimalarial activity against asexual blood stage quinine-resistant Plasmodium falcipuram C2A assessed as parasite growth inhibition incubated for 72 hrs by SYBR Green I staining based fluorescence analysis; type: functional, organism-based
[14] = target: T1, NAD-dependent protein deacetylase sirtuin-2 (Homo sapiens, UniProt Q8IXJ6); test: Inhibition of human C-terminal His-tagged SIRT2 (50 to 356 residues) expressed in Escherichia coli using Ac-peptide as substrate incubated for 4 hrs followed by trypsin addition and further incubated for 2 hrs
T1 sequence (Q8IXJ6 whole entry): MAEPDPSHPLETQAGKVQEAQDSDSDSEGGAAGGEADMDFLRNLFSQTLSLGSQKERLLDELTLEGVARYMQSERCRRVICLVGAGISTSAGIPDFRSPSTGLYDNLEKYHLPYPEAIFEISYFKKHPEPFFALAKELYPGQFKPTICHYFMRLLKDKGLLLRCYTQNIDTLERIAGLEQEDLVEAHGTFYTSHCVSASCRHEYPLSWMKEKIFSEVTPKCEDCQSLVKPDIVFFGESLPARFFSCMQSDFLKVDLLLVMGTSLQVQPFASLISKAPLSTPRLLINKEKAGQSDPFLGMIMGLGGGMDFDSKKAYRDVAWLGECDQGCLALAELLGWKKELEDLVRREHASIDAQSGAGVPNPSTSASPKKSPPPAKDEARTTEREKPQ

Plasmodium falciparum [15] = test: In vivo inhibition of C-terminal TY1 fused HDAC1 in Plasmodium falcipuram 3D7 assessed as inhibition of parasite growth by measuring downregulation of RBC invasion-related genes expression level by RNA-seq analysis; type: functional, organism-based
Plasmodium falciparum [16] = test: In vivo inhibition of C-terminal TY1 fused HDAC2 in Plasmodium falcipuram 3D7 assessed as inhibition of parasite growth incubated for 4 hrs followed by compound washout and replacement with fresh medium with compounds measured after 68 hrs by SYBR Green I staining based fluorescence analysis; type: functional, organism-based
Plasmodium yoelii [17] = test: Antimalarial activity against blood stage Plasmodium yoelii infected in BALB/c mouse assessed as parasite recrudescence by measuring parasitemia at 60 mg/kg, ip qd for 5 days and measured on 11 to 26 days; type: functional; settings: time 11-26 day
Plasmodium falciparum [18] = test: Inhibition of Plasmodium falcipuram HDAC assessed as effect on parasite histone deacetylation level at 5 to 20 nM incubated for 4 hrs by Western blot analysis; settings: dose 5-20 nM
Plasmodium falciparum [19] = test: In vivo inhibition of C-terminal glmS fused HDAC2 in Plasmodium falcipuram 3D7 assessed as inhibition of parasite growth incubated for 4 hrs followed by compound washout and replacement with fresh medium with compounds measured after 68 hrs by SYBR Green I staining based fluorescence analysis; type: functional, organism-based
[20] = In vivo inhibition of C-terminal TY1 fused HDAC1 in Plasmodium falcipuram 3D7 assessed as inhibition of parasite growth incubated for 4 hrs followed by compound washout and replacement with fresh medium with compounds measured after 68 hrs by SYBR Green I staining based fluorescence analysis; type: functional, organism-based, Plasmodium falciparum
[21] = Apparent volume of distribution in BALB/c mouse at 5 mg/kg, ip measured after upto 24 hrs by LC-MS/MS analysis; type: ADME, organism-based; settings: in vivo, read-out: Vz/F
[22] = In vivo inhibition of C-terminal glmS fused HDAC1 in Plasmodium falcipuram 3D7 assessed as inhibition of parasite growth incubated for 4 hrs followed by compound washout and replacement with fresh medium with compounds measured after 68 hrs by SYBR Green I staining based fluorescence analysis; type: functional, organism-based, Plasmodium falciparum
Plasmodium falciparum [23] = test: Inhibition of Plasmodium falcipuram recombinant HDAC1 using HDAC-Glo I/II as substrate at 50 to 800 nM preincubated for 90 mins by luminescence based microplate reader analysis; settings: dose 50-800 nM
[24] = Toxicity in BALB/c mouse infected with blood stage Plasmodium yoelii assessed as animal death at 30 mg/kg, ip qd for 5 days and measured upto 60 days; type: organism-based; settings: in vivo, 1440 h, time 60 day
[25] = Cmax in BALB/c mouse at 5 mg/kg, ip measured upto 24 hrs by LC-MS/MS analysis; type: ADME, organism-based; parameters: route intraperitoneal, dose 5 mg/kg, time <=24; settings: in vivo
Plasmodium falciparum [26] = test: (§1) Antimalarial activity against synchronized Plasmodium falcipuram 3D7 infected in human RBC assessed as irreversible inhibition of parasite growth at ring stage at 40 nM treated at 5 to 17 hpi incubated for 12 hrs followed by compound washout and replacement with fresh medium without compounds and measured after 4 days by flow cytometry; type: functional, organism-based
Plasmodium berghei = test: Antimalarial activity against liver stage transgenic Plasmodium berghei ANKA sporozoites transfected with GFP-Luc infected in BALB/c mouse assessed as reduction in liver stage parasite infection at 30 mg/kg, iv measured for 1 to 4 days post-administration by IVIS spectrum in vivo imaging analysis; type: functional, organism-based; settings: time 1-4 day
Plasmodium falciparum [27] = test: Antimalarial activity against blood stage asynchronous Plasmodium falcipuram 3D7 assessed as suppression of parasite reproduction by measuring parasitemia at 10 nM incubated for 24 hrs followed by compound washout and replacement with fresh medium without compounds and measured after 4 days by flow cytometry; type: functional
[28] = Toxicity in BALB/c mouse infected with blood stage Plasmodium yoelii assessed as animal death at 60 mg/kg, ip qd for 5 days and measured on day 28; type: organism-based; settings: in vivo, 672 h, time 28 day
Plasmodium falciparum [29] = test: as §1, with “schizont” for “ring”, “29” for “at 5”, “41” for “17”; type: functional, organism-based
[30] = Tmax in BALB/c mouse at 5 mg/kg, ip measured after upto 24 hrs by LC-MS/MS analysis; type: ADME, organism-based; settings: in vivo
[31] = Toxicity in BALB/c mouse infected with blood stage Plasmodium yoelii assessed as animal death at 60 mg/kg, ip qd for 5 days measured from day 2 post compound treatment; type: organism-based; settings: in vivo, 120 h, time 5 day
Plasmodium falciparum [32] = test: Antimalarial activity against blood stage asynchronous Plasmodium falcipuram 3D7 assessed as parasite growth inhibition by measuring parasitemia at 10 to 100 nM incubated for 12 to 24 hrs by flow cytometry; type: functional, organism-based; settings: dose 10-100 nM, time 12-24 hrs
Plasmodium falciparum [33] = test: Antimalarial activity against blood stage asynchronous Plasmodium falcipuram 3D7 assessed as parasite growth inhibition by measuring parasitemia incubated for 6 to 12 hrs followed by compound washout and replacement with fresh medium without compounds and measured after 4 days by flow cytometry; type: functional, organism-based; settings: dose 10-100 nM, time 6-12 hrs
Plasmodium falciparum [34] = test: Antimalarial activity against synchronized Plasmodium falcipuram 3D7 infected in human RBC assessed as ring stage parasite killing at 40 nM treated […] and incubated for 12 hrs followed by compound washout and replacement with fresh medium without compounds and measured at 50 hrs post infection by Geimsa staining based microscopy; type: functional, organism-based
[35] = Apparent clearance in BALB/c mouse at 5 mg/kg, ip measured after upto 24 hrs by LC-MS/MS analysis; type: ADME, organism-based; settings: in vivo, read-out: CLz/F (converted)
Plasmodium falciparum [36] = test: In vivo inhibition of C-terminal glmS fused HDAC1 in Plasmodium falcipuram 3D7 assessed as inhibition of parasite growth by measuring downregulation of RBC invasion-related genes expression level by RNA-seq analysis; type: functional, organism-based
Plasmodium yoelii [37] = test: Antimalarial activity against blood stage Plasmodium yoelii infected in BALB/c mouse assessed as parasitemia at 60 mg/kg, ip qd for 5 days and measured after 14 days; type: functional; settings: time 14 day

SMILES: Cl.Cn1c(CN2CC3(CCN(c4ncc(C(=O)NO)cn4)C3)C2)nc2ccccc21
IC50 at 72 h [1]: 9330 nM
selectivity ratio [2]: 5070
IC50 at 72 h [3]: > 9450 nM
half-life ([4]; liver microsomes): 2.23 h
Activity (Plasmodium yoelii [5]): 16.57%
IC50 (Plasmodium falciparum [6]): 4.64 nM
IC50 (Plasmodium falciparum [7]): 1.84 nM
IC50 (Plasmodium falciparum [8]): 9.87 nM
IC50 (Plasmodium falciparum [9]): 3.99 nM
CLint scaled [10]: 40.7 mL/min/kg
Activity (Plasmodium yoelii [11]): inactive
selectivity ratio [12]: > 5140
IC50 (Plasmodium falciparum [13]): 3.8 nM

IC50 [14]: 5440 nM
SMILES: Cc1ccc(C(=O)Nc2ccc(S(=O)(=O)O)c3cc(S(=O)(=O)O)cc(S(=O)(=O)O)c23)cc1NC(=O)c1cccc(NC(=O)Nc2cccc(C(=O)Nc3cc(C(=O)Nc4ccc(S(=O)(=O)O)c5cc(S(=O)(=O)O)cc(S(=O)(=O)O)c45)ccc3C)c2)c1 [SURAMIN]

SMILES: Cn1cc(CNCC2CCN(c3ncc(C(=O)NO)cn3)CC2)c2ccccc21 [QUISINOSTAT]
IC50 at 72 h [1]: 60 nM
inhibition (Plasmodium falciparum [15]): Active
inhibition (Plasmodium falciparum [16]): Active
Activity (Plasmodium yoelii [17]): 0.05%
Activity (Plasmodium falciparum [18]): Active
inhibition (Plasmodium falciparum [19]): Active
IC50 [20]: 19.1 nM
IC50 at 72 h [3]: 30 nM
Vd/F [21]: 245 L/kg
IC50 [22]: 5.59 nM
t1/2 [4]: 10.5 h
inhibition (Plasmodium falciparum [23]): Active
Activity [24]: Toxic
Cmax [25]: 89 ng/mL
IC50 (Plasmodium falciparum [6]): 1.75 nM
Activity (Plasmodium falciparum [26]): Active
Activity (Plasmodium berghei): inactive
Activity (Plasmodium falciparum [27]): 100%
IC50 (Plasmodium falciparum [7]): 4.01 nM
Activity [28]: Toxic
IC50 (Plasmodium falciparum [9]): 7.09 nM
Activity (Plasmodium falciparum [29]): Active
Tmax [30]: 4.8 min
Activity [31]: Toxic
Activity (Plasmodium falciparum [32]): Active
Activity (Plasmodium falciparum [33]): Dose dependent effect
Activity (Plasmodium falciparum [34]): Active
CL/F [35]: 462 mL/min/kg
inhibition (Plasmodium falciparum [36]): Active
IC50 (Plasmodium falciparum [13]): 2.52 nM

SMILES: Cl.Cn1cc(CN2CC3(CCN(c4ncc(C(=O)NO)cn4)C3)C2)c2ncccc21
IC50 at 72 h [1]: > 20000 nM
selectivity ratio [2]: > 7490
IC50 at 72 h [3]: 20000 nM
t1/2 [4]: 2.9965 h
Activity (Plasmodium yoelii [37]): 46.37%
IC50 (Plasmodium falciparum [6]): 4.47 nM
IC50 (Plasmodium falciparum [7]): 2.67 nM
IC50 (Plasmodium falciparum [8]): 13.1 nM
IC50 (Plasmodium falciparum [9]): 3.08 nM
Activity (Plasmodium yoelii [11]): inactive
selectivity ratio [12]: > 7490
IC50 (Plasmodium falciparum [13]): 3.76 nM
